Laboratory results from patent publication EP1388586A2, “Identification of broadly reactive DR restricted epitopes” (priority 1998, dated 1999).
Where two headings read alike, the source gives them in different places. Ends that are not written are not given here.

Experiments:
[1] = target: T1, DRB1*0901 (DR9) (Homo sapiens, UniProt P01903+P01911, A100R/A103E/D57H/D86V/F55Y/F60I/F76Y/I96F/K127E/L162R/M171V/P40D/Q125H/Q99R/R33Q/R42F/S133A/S66N/T210M/V115G/W38K/Y107V/Y59G/Y89S); assay: Class II peptide-binding assay, DR9; conditions: Table V A) Non Predictions; read-out: Binding Capacity DR9
T1 construct: used as sources of human HLA class II molecules; endogenous in cells; host or cells: HTC9074 (EBV-transformed homozygous B cell line); gift of Dr. Paul Harris
Method: (§1) Class II peptide-binding assays. […] These assays were chosen as to be representative of the most common DR alleles.
(§2) In appropriate stoichiometric conditions, the IC50 of an unlabeled test peptide to the purified DR is a reasonable approximation of the affinity of interaction (Kd). Peptides were tested in two to four completely independent experiments. […] Final detergent concentration in the incubation mixture was 0.05% Nonidet P-40. Assays were performed at pH 7.0 with the exception of DR3, which was performed at pH 4.5, and DRw53, which was performed at pH 5.0.
(§3) All subsequent inhibition and direct binding assays were the performed using these class II concentrations.

[2] = target: T2, DRB1*0802 (DR8w2) (Homo sapiens, UniProt P01903+P01911, A100R/A103L/A169T/F76Y/H45Y/I96F/K41T/L162R/M171V/P40S/Q125H/Q178H/Q39Y/Q99D/R218S/R42G/S66Y/V115G/W38E); assay: Class II peptide-binding assay, DR8w2; conditions: Table V A) Non Predictions; read-out: Binding Capacity DR8w2
T2 construct: used as sources of human HLA class II molecules; endogenous in cells; host or cells: OLL (EBV-transformed homozygous B cell line)
Method: as §1
(§4) Radiolabeled peptides were iodinated using the chloramine-T method. […] In appropriate stoichiometric conditions, the IC50 of an unlabeled test peptide to the purified DR is a reasonable approximation of the affinity of interaction (Kd). Peptides were tested in two to four completely independent experiments. […] Final detergent concentration in the incubation mixture was 0.05% Nonidet P-40. Assays were performed at pH 7.0 with the exception of DR3, which was performed at pH 4.5, and DRw53, which was performed at pH 5.0.
as §3
DR8w2 and DR8w3. The β1 specificity of the DR8w2 and DR8w3 assays is obvious in that no β3 (and/or B4 and β5) molecule is expressed.

[3] = target: T3, DRB1*1501 (DR2w2b) (Homo sapiens, UniProt P01903+P01911); assay: Class II peptide-binding assay, DR2w2b (DR2w2B1); conditions: Table V A) Non Predictions; read-out: Binding Capacity DR2w2b
T3 construct: expressed in transfected cells; host or cells: L466.1 transfected fibroblasts
Method: as §1, §2, §3

[4] = target: T4, DRB5*0101 (DR2w2a) (Homo sapiens, UniProt P01903+Q30154); assay: Class II peptide-binding assay, DR2w2a (DR2w2B2);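 also: competitive binding assay: unlabeled peptide inhibiting binding of a radiolabeled probe peptide to purified DR molecules at pH 7.0, IC50 approximating Kd, lower means stronger binding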
T4 construct: used as sources of human HLA class II molecules; endogenous in cells; host or cells: GM3107 (EBV-transformed homozygous B cell line)

[5] = target: T5, DRB1*0401 (DR4w4) (Homo sapiens, UniProt P01903+P01911, A100K/A169T/F76Y/I96L/K127E/L162R/M171V/N62H/P40V/Q125Y/R42H/S133A/S149N/S66Y/V115G/V209L/W38E); assay: Class II peptide-binding assay, DR4w4;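 also: unlabeled test peptides compete with a radiolabeled probe peptide for binding to affinity-purified HLA-DR, with DR amount titrated to capture a small fraction of label, IC50 approximating Kd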
T5 construct: used as sources of human HLA class II molecules; endogenous in cells; host or cells: PREISS (EBV-transformed homozygous B cell line)

[6] = system: panel of purified HLA DR molecules; assay type: binding, human; conditions: Table V A) Non Predictions; 12 DR molecules listed;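 also: competitive inhibition of radiolabeled probe peptide binding to purified HLA DR molecules, with inhibitory potency of unlabeled peptides taken as an approximation of affinity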
Method: as §1, §4, §3

[7] = target: T6, DRB1*1101 (DR5w11) (Homo sapiens, UniProt P01903+P01911, A100R/A169T/A87E/I96F/K41T/L162R/M171V/P40S/Q125H/Q178H/Q39Y/Q99D/R42S/S66Y/T262R/V115G/W38E); assay: Class II peptide-binding assay, DR5w11;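 also: competition by unlabeled test peptide against iodinated probe peptide binding to affinity-purified HLA-DR, class II amount titrated beforehand, half-maximal inhibitory concentration read as approximate Kd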
T6 construct: used as sources of human HLA class II molecules; endogenous in cells; host or cells: SWEIG (EBV-transformed homozygous B cell line)

[8] = target: T7, DRB1*0101 (DR1) (Homo sapiens, UniProt P01903+P01911, A100R/D57E/F55L/F60I/F76Y/I96L/L162R/M171V/P40L/Q125E/R42F/V115G/Y59C); assay: Class II peptide-binding assay, DR1;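 also: competition assay: unlabeled test peptides inhibit binding of a radiolabeled probe peptide to purified DR, with half-maximal inhibition taken as an approximate dissociation constant Kd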
T7 construct: used as sources of human HLA class II molecules; endogenous in cells; host or cells: LG2 (EBV-transformed homozygous B cell line)

[9] = target: T8, DRB1*1201 (DR5w12) (Homo sapiens, UniProt P01903+P01911, A100R/A169T/D57E/D86V/F55L/H45Y/K41T/L162R/M171V/P40S/Q125H/Q178H/Q39Y/Q99D/R42G/S66L/T262R/V114A/V67L/W38E/Y59H/Y61H/Y89S); assay: Class II peptide-binding assay, DR5w12; conditions: Table V A) Non Predictions; read-out: Binding Capacity DR5w12
T8 construct: used as sources of human HLA class II molecules; endogenous in cells; host or cells: Herluf (EBV-transformed homozygous B cell line)
Method: as §1, §2, §3

[10] = target: DRB1*0405 (DR4w15) (Homo sapiens, UniProt P01903+P01911, A100R/A169T/D86S/F76Y/I96L/K127E/L162R/M171V/N62H/P40V/Q125Y/R42H/S133A/S149N/S66Y/V115G/V209L/W38E); assay: Class II peptide-binding assay, DR4w15; conditions: Table V A) Non Predictions; read-out: Binding Capacity DR4w15
Method: as §1, §4, §3
DR4w15. The β4 product DRw53 is co-expressed with DR4w15 and the determination of the specificity of the DR4w1 binding assay is complicated in that the same radiolabeled ligand is used for both the DR4w15 and DRw53 binding assays.

[11] = target: DRB1*0701 (DR7) (Homo sapiens, UniProt P01903+P01911, A100R/A102G/A103Q/D57E/D86V/E43K/F76Y/K127E/L162R/M171V/P40G/Q125H/Q99D/R33Q/R42Y/R54Q/S133A/S66F/T210M/V115G/Y107V/Y59L/Y89S); assay: Class II peptide-binding assay, DR7; conditions: read-out: DR7 nM (In IC50 Format); purified HLA DR7;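 also: unlabeled peptides compete with an iodinated probe peptide for binding to affinity-purified HLA-DR at neutral pH, DR amount titered to bind a small tracer fraction, IC50 approximating Kd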
[12] = target: T9, DRB10404 (DR4w14) (Homo sapiens, UniProt P01903+P01911, A100R/A169T/F76Y/I96L/K127E/L162R/M171V/N62H/P40V/Q125Y/R42H/S133A/S149N/S66Y/V209L/W38E); assay: Class II peptide-binding assay, DR4w14; conditions: read-out: DR4w14 nM (In IC50 Format); purified HLA DR4w14;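 also: unlabeled peptides compete with a radiolabeled probe for binding to affinity-purified HLA-DR, neutral pH, class II amount titrated to bind a small fraction of label, IC50 approximates Kd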
T9 construct: used as sources of human HLA class II molecules; endogenous in cells; host or cells: BIN40 (EBV-transformed homozygous B cell line)

[13] = target: T10, DRB4*0101 (DRw53) (Homo sapiens, UniProt P01903+P13762, G164S); assay type: binding; conditions: read-out: DRw53 nM (In IC50 Format)
T10 construct: expressed in transfected cells; host or cells: L257.6 transfected fibroblasts
Method: as §1, §4, §3

T6 sequence (P01903 26-254, other chains not shown): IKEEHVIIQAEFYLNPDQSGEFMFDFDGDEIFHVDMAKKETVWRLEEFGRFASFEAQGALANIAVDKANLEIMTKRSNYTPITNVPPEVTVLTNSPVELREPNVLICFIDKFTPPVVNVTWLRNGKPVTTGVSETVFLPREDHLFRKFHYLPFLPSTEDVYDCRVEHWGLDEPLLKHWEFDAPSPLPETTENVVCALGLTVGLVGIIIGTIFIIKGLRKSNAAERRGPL

Row | Substance | IC50 [1] | IC50 [2] | IC50 [3] | IC50 ([4]; Table V A) Non Predictions, read-out: Binding Capacity DR2w2a) | IC50 ([5]; Table V A) Non Predictions, read-out: Binding Capacity DR4w4) | Total Alleles Bound [6] | IC50 ([7]; Table V A) Non Predictions, read-out: Binding Capacity DR5w11) | IC50 ([8]; Table V A) Non Predictions, read-out: Binding Capacity DR1) | IC50 [9] | IC50 [10] | IC50 [11] | IC50 [12] | IC50 ([4]; read-out: DR2w2B2 nM (In IC50 Format), purified HLA DR2w2β2) | IC50 [13] | IC50 ([5]; read-out: DR4w4 nM (In IC50 Format), purified HLA DR4w4) | IC50 ([7]; read-out: DR5w11 nM (In IC50 Format), purified HLA DR5w11) | IC50 ([8]; read-out: DR1 nM (In IC50 Format), purified HLA DR1)
1 | GPPTALRSFGFAFGYM [Peptide 1136.29] | 0.183 µM | 2.97 µM | 0.0011 µM | 0.468 µM | 4.33 µM | 7 | 6.25 µM | 0.032 µM | 1 µM | 0.745 µM |  |  |  |  |  |  | 
2 | YARFQRQTTLKAAA-NH2 [Peptide 717.10] |  |  |  |  |  |  |  |  |  |  | 3.57 µM | 0.0128 µM | 0.0556 µM | 0.0065 µM | 0.0056 µM | 0.0087 µM | 0.0029 µM
